Results published in EPA's CvTdb concentration-time database.

How the values were obtained:
Mouse [1] = experiment: concentration in plasma after dosing; conditions: 0.25 h; dosed: 2-Hydroxy-4-methoxybenzophenone; 250 mg/kg; oral; Female; B6C3F1
Mouse [2] = experiment: concentration in plasma after dosing; conditions: 2 h; dosed: 2-Hydroxy-4-methoxybenzophenone; 250 mg/kg; oral; Male; B6C3F1
Rat [3] = experiment: concentration in plasma after dosing; conditions: 0.25 h; dosed: 2-Hydroxy-4-methoxybenzophenone; 500 mg/kg; oral; Male; F344
Rat [4] = experiment: concentration in plasma after dosing; conditions: dosed: 2-Hydroxy-4-methoxybenzophenone, 100 mg/kg, oral, Male, F344
Mouse [5] = experiment: concentration in plasma after dosing; conditions: 0.25 h; dosed: 2-Hydroxy-4-methoxybenzophenone; 500 mg/kg; oral; Male; B6C3F1
Rat [6] = experiment: concentration in plasma after dosing; conditions: 6 h; dosed: 2-Hydroxy-4-methoxybenzophenone; 500 mg/kg; oral; Male; F344
Rat [7] = experiment: concentration in plasma after dosing; conditions: 2 min; dosed: Nitrite; 40 mg/kg; oral; Female; F344
Rat [8] = experiment: concentration in plasma after dosing; conditions: 10 min; dosed: Nitrite; 40 mg/kg; oral; Female; F344
Rat [9] = experiment: concentration in plasma after dosing; conditions: dosed: Nitrite, 80 mg/kg, oral, Female, F344
Rat [10] = experiment: concentration in plasma after dosing; conditions: dosed: Nitrite, 80 mg/kg, oral, Female, F344; remark: listed apart in the source
Rat [11] = experiment: concentration in plasma after dosing; conditions: dosed: Nitrite, 80 mg/kg, oral, Female, F344; remark: listed apart in the source
Rat [12] = experiment: concentration in plasma after dosing; conditions: dosed: Fluorotelomer alcohol 8+2, 12 mg/kg, oral, Male, Harlan Sprague Dawley
Rat [13] = experiment: concentration in liver after dosing; conditions: 192 h; dosed: Perfluorooctanoic acid; 12 mg/kg; oral; Male; Harlan Sprague Dawley
Rat [14] = experiment: concentration in liver after dosing; conditions: 192 h; dosed: Perfluorooctanoic acid; 12 mg/kg; oral; Male; Harlan Sprague Dawley; remark: listed apart in the source
Rat [15] = experiment: concentration in kidney after dosing; conditions: 3 h; dosed: Perfluorooctanoic acid; 80 mg/kg; oral; Female; Harlan Sprague Dawley
Rat [16] = experiment: concentration in liver after dosing; conditions: 6 h; dosed: Fluorotelomer alcohol 8+2; 24 mg/kg; oral; Male; Harlan Sprague Dawley
Rat [17] = experiment: concentration in plasma after dosing; conditions: dosed: 678-39-7, 40 mg/kg, iv, Female, Harlan Sprague-Dawley
Rat [18] = experiment: concentration in kidney after dosing; conditions: 12 h; dosed: Fluorotelomer alcohol 8+2; 24 mg/kg; oral; Male; Harlan Sprague Dawley
Rat [19] = experiment: concentration in brain after dosing; conditions: 24 h; dosed: Perfluorooctanoic acid; 12 mg/kg; oral; Male; Harlan Sprague Dawley
Rat [20] = experiment: concentration in liver after dosing; conditions: 6 h; dosed: Perfluorooctanoic acid; 12 mg/kg; oral; Male; Harlan Sprague Dawley
Rat [21] = experiment: concentration in kidney after dosing; conditions: 0.5 h; dosed: Fluorotelomer alcohol 8+2; 80 mg/kg; oral; Female; Harlan Sprague Dawley
Rat [22] = experiment: concentration in brain after dosing; conditions: 3 h; dosed: Perfluorooctanoic acid; 12 mg/kg; oral; Male; Harlan Sprague Dawley
Rat [23] = experiment: concentration in liver after dosing; conditions: 6 h; dosed: Perfluorooctanoic acid; 80 mg/kg; oral; Female; Harlan Sprague Dawley
Rat [24] = experiment: concentration in brain after dosing; conditions: 6 h; dosed: Perfluorooctanoic acid; 80 mg/kg; oral; Female; Harlan Sprague Dawley
Rat [25] = experiment: concentration in kidney after dosing; conditions: 12 h; dosed: Perfluorooctanoic acid; 12 mg/kg; oral; Male; Harlan Sprague Dawley
Rat [26] = experiment: concentration in liver after dosing; conditions: 0.5 h; dosed: Potassium Perfluorobutane Sulfonate; 20 mg/kg; oral; Male; Harlan Sprague Dawley
Rat [27] = experiment: concentration in plasma after dosing; conditions: dosed: Potassium Perfluorobutane Sulfonate, 4 mg/kg, oral, Male, Harlan Sprague Dawley
Rat [28] = experiment: concentration in liver after dosing; conditions: 3 h; dosed: Potassium Perfluorobutane Sulfonate; 20 mg/kg; oral; Female; Harlan Sprague Dawley
Rat [29] = experiment: concentration in plasma after dosing; conditions: dosed: Potassium Perfluorobutane Sulfonate, 4 mg/kg, iv, Male, F344
Rat [30] = experiment: concentration in kidney after dosing; conditions: 1 h; dosed: Potassium Perfluorobutane Sulfonate; 20 mg/kg; oral; Female; Harlan Sprague Dawley
Rat [31] = experiment: concentration in plasma after dosing; conditions: dosed: Potassium Perfluorobutane Sulfonate, 4 mg/kg, oral, Male, Harlan Sprague Dawley; remark: listed apart in the source
rat [32] = experiment: concentration in blood after dosing; conditions: dosed: methanol, male, CDF(F344)/CrlBR

COc1ccc(C(=O)c2ccccc2)c(O)c1 [2-Hydroxy-4-methoxybenzophenone]
Conditions | concentration in plasma [ng/mL]
Mouse [1] | 88.3
Mouse [2] | 34
Mouse [5] | 468
Rat [3] | 403
Rat [6] | 293

Rat [4]
Conditions | concentration in plasma [ng/mL]
0.25 h | 218
3 h | 6.64
4 h | 28.5
10 min | 106

O=N[O-] [Nitrite]
Conditions | concentration in plasma [ng/mL]
Rat [7] | 7300
Rat [8] | 8500

Conditions | concentration in plasma [ng/mL]
Rat [9], 1 h | 19000
Rat [9], 2 h | 8500
Rat [10], 0.5 h | 11900
Rat [10], 4 h | 2400
Rat [11], 6 h | 1800
Rat [11], 10 min | 24800

O=C(O)C(F)(F)C(F)(F)C(F)(F)C(F)(F)C(F)(F)C(F)(F)C(F)(F)F [Perfluorooctanoic acid]
concentration in plasma [ng/mL]
Conditions | 0.25 h | 0.75 h | 6 h | 12 h
Rat [12] | 27.2 | – | 635 | –
Rat [17] | – | 1830 | – | 528

Conditions | concentration in brain [ng/g] | concentration in kidney [ng/g] | concentration in liver [ng/g]
Rat [13] | – | – | 51800
Rat [14] | – | – | 46900
Rat [15] | – | 321000 | –
Rat [16] | – | – | 1450
Rat [18] | – | 581 | –
Rat [19] | 1290 | – | –
Rat [20] | – | – | 63400
Rat [21] | – | 284 | –
Rat [22] | 913 | – | –
Rat [23] | – | – | 130000
Rat [24] | 3230 | – | –
Rat [25] | – | 27000 | –

O=S(=O)([O-])C(F)(F)C(F)(F)C(F)(F)C(F)(F)F.[K+] [Potassium Perfluorobutane Sulfonate]
Conditions | concentration in kidney [ng/g] | concentration in liver [ng/g]
Rat [26] | – | 62000
Rat [28] | – | 8410
Rat [30] | 19300 | –

Conditions | concentration in plasma [ng/mL]
Rat [27], 0.75 h | 14200
Rat [27], 12 h | 2550
Rat [29], 3 h | 12800
Rat [29], 5 min | 32200
Rat [31], 0.25 h | 3580
Rat [31], 6 h | 11600

CO [methanol]
rat [32], 200 ppm, inhalation, duration: 6 hr
Conditions | concentration in blood [ng/mL]
0 h | 4780
0.5 h | 2950
1 h | 1990
1.5 h | 3160
2 h | 2100
3 h | 949
4.5 h | 1730
6 h | 396
8 h | 704
10 h | 528

rat [32], 100 mg/kg, iv
Conditions | concentration in blood [ng/mL]
0.3747 h | 90900
0.621 h | 80500
1.114 h | 70300
1.606 h | 61300
2.08 h | 60600
3.027 h | 39200
4.505 h | 26100
6.002 h | 12200
